Source: PMC2812657 (Biochemical and biophysical research communications, 2009)
pIC50: −log10 of the molar value.

Experiments:
GSK3β = GSK3β (Homo sapiens, UniProt P49841); assay: in vitro kinase profiling assay; format: biochemical
GSK3α = GSK3α (Homo sapiens, UniProt P49840); assay: in vitro kinase profiling assay
Sequence of GSK3α (P49840 2-483): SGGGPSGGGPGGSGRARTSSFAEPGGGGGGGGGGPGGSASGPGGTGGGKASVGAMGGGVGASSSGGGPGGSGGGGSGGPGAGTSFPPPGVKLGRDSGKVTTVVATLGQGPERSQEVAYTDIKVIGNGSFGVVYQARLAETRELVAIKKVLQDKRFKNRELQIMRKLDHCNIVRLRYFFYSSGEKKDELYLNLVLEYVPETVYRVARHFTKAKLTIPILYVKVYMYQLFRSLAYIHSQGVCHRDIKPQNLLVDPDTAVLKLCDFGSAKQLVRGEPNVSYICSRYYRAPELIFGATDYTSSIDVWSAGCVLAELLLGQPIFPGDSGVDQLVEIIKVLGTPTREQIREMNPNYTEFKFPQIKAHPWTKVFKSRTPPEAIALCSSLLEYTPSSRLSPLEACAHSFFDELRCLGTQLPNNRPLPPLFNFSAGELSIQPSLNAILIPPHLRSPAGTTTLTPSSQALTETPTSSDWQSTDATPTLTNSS

Sequence of GSK3β (P49841 whole entry): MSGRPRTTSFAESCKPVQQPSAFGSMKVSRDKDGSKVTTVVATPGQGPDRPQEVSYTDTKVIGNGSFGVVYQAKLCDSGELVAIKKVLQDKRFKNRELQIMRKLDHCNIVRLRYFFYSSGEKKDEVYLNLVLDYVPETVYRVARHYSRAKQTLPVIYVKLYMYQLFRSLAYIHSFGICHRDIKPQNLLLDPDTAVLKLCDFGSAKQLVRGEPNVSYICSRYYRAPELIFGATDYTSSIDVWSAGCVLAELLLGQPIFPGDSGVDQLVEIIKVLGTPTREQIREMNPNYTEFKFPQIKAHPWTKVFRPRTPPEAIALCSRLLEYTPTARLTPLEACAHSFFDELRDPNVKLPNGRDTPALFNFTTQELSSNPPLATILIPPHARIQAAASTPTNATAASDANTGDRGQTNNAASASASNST

- pIC50 (GSK3β): 6.39
- pIC50 (GSK3α): 7.06
Compound: Nc1cccc(-c2cc3c(Oc4cccc(O)c4)ncnc3[nH]2)c1 [TWS119]
